In data set [1] the test system is Gliadins. The data set is described as follows: Reductant specificity of gliadins (mBBr, native gel, densitometer). It counts as biochemical, durum wheat. Set-up: Gliadin, % Relative Reduction, α / Gliadin, % Relative Reduction, β / Gliadin, % Relative Reduction, γ: concentration or dose not given beside the values. As to conditions: Thioredoxin = 100. How it is done:
(§1) For isolation of insoluble storage proteins, semolina (0.2 g) was extracted sequentially with 1 ml of the following solutions for the indicated times at 25° C.; (1) 50 mM Tris-HCl, pH 7.5 (20 min); (2) 70% ethanol (2 hr); and (3) 0.1 M acetic acid (2 hr). During extraction, samples were placed on an electrical rotator and, in addition, occasionally agitated with a vortex mixer. After extraction with each solvent, samples were centrifuged (12,000 rpm for 5 min) in an Eppendorf microfuge and, supernatant fractions were saved for analysis. In between each extraction, pellets were washed with 1 ml of water, collected by centrifugation as before and the supernatant wash fractions were discarded. By convention, the fractions are designated: (1) albumin/globulin; (2) gliadin; and (3) glutenin.
(§2) Reactions were carried out in 100 mM Tris-HCl buffer, pH 7.9. As indicated, 0.7 μg NTR and 1 μg thioredoxin (both from E. coli unless specified otherwise) were added to 70 μl of this buffer containing 1 mM NADPH and 10 μg of target protein.
To resolve the different types of gliadins, native polyacrylamide gel electrophoresis was performed in 6% gels (a procedure designed to separate gliadins into the four types) as described by Bushuk and Zillman (Bushuk, W. et al. (1978), Can. J. Plant Sci. 58:505-515) and modified for vertical slab gels by Sapirstein and Bushuk (Sapirstein, H. D. et al. (1985), Cereal Chem. 62:372-377). A gel solution in 100 ml final volume contained 6.0 g acrylamide, 0.3 g bisacrylamide, 0.024 g ascorbic acid, 0.2 mg ferrous sulfate heptahydrate and 0.25 g aluminum lactate. The pH was adjusted to 3.1 with lactic acid. The gel solution was degassed for 2 hr. on ice and then 0.5 ml of 3% hydrogen peroxide was added as a polymerization catalyst. The running buffer, also adjusted to pH 3.1 with lactic acid, contained 0.5 g aluminum lactate per liter. Duration of electrophoresis was approximately 4 hr., with a constant current of 50 mA. Electrophoresis was terminated when the solvent front, marked with methyl green tracking dye, migrated to about 1 cm from the end of the gel.
(§3) The Polaroid negatives of fluorescent gels and prints of wet protein stained gels were scanned with a laser densitometer (Pharmacia-LKB UltroScan XL). Fluorescence was quantified by evaluating peak areas after integration with GelScan XL software.
The gliadin fraction is made up of four different protein types, designated α, β, γ and ω, which can be separated by native polyacrylamide gel electrophoresis under acidic conditions (Bushuk, W. et al. (1978), Can. J. Plant Sci. 58:505-515; Kasarda, D. D. et al. (1976), Adv. Cer. Sci. Tech. 1:158-236; Sapirstein, H. D. et al. (1985), Cereal Chem. 62:372-377; and Tatham, A. S. et al. (1990), Adv. Cer. Sci. Tech. 10:1-78). Except for the ω) gliadins, each species contains cystine (S—S) groups and thus has the potential for reduction by thioredoxin. In this study, following incubation with the indicated additions, proteins were derivatized with mBBr, and fluorescence was visualized after acidic-polyacrylamide gel electrophoresis. The lanes in the second gliadin gel in this study were as follows: 1. Control: no addition. 2. GSH: reduced glutathione. 3. GSH/GR/NADPH: reduced glutathione, glutathione reductase (from spinach leaves) and NADPH. 4. NGS: NADPH, reduced glutathione, glutathione reductase (from spinach leaves) and glutaredoxin (from E. coli). 5. NGS+NTS: combination of 4 and 6. 6. NTS: NADPH, NTR, and thioredoxin (both proteins from E. coli). 7. MET/T(Ec): β-mercaptoethanol and thioredoxin (E. coli). 8. DTT/T(Ec): DTT and thioredoxin (E. coli). 9. NTS(−T): same as 6 except without thioredoxin. 10. NGS+NTS,-Gliadin: same as 5 except without the gliadin fraction.

In data set [2] the test system is Glutenins. The data set is described as follows: Reductant specificity of glutenins (mBBr/SDS-PAGE, densitometer). Further details: concentration or dose not given beside the values. It counts as biochemical, durum wheat. The procedure: as §1, §2
SDS-polyacrylamide electrophoresis of the mBBr-derivatized samples was performed in 15% gels at pH 8.5 as described by Laemmli, U.K. (1970), Nature 227:680-685. Gels of 1.5 mm thickness were developed for 16 hr. at a constant current of 9 mA.
as §3

For data set [3], the system named is castor seed 2S protein. Format: biochemical, Ricinus communis.
Data set [4] deals with egg white proteins. The data set is described as follows: Reduction of egg white proteins (mBBr/SDS-PAGE). It counts as biochemical, chicken. As to conditions: 1 hr at room temperature. How it is done: Dried chicken egg white was purchased from Sigma Chemical Co. About 80% of the total proteins in egg white are allergens. A solution of 20 mg/ml egg white was resuspended in PBS. Since not all the material was dissolved, it was centrifuged at 14,000 RPM for 2 min. The soluble egg white proteins were used for the reduction study using mBBr fluorescent labelling and SDS-polyacrylamide gel electrophoresis analysis. The treatments used were the control (no reductant), NTS, DTT plus thioredoxin, reduced glutathione (GSH) and reduced glutathione/glutathione reductase/NADPH. Reactions were carried out in PBS with 23 microliters of the soluble proteins from the 20 mg/ml egg white suspension in a final volume of 100 microliters. In the NTS, 7.5 mM NADPH, 2.4 micrograms thioredoxin and 2.1 micrograms NTR were used. When thioredoxin was reduced by DTT, NADPH and NTR were omitted and DTT was added to 1.5 mM. The GSH concentration used was 3 mM. For reduction by the GSH/GR/NADPH system, 3 mM GSH, 4 micrograms GR and 7.5 mM NADPH were used. The mixture was incubated for 1 hr at room temperature. After incubation, 7 microliters of 80 mM mBBr was added and the reaction continued for 15 min at room temperature. […] Samples were then analyzed by SDS-polyacrylamide gel electrophoresis.

Data set [5] relates to pepsin. The data set is described as follows: Pepsin assay in simulated gastric fluid. It counts as in vitro ADME, porcine. The settings on record: thioredoxin-reduced form in milk, SGF 37° C. How it is done:
BLG, 640 μg, or milk, 1 mg protein (i.e., about 30 μl), was incubated with or without the thioredoxin system (NTS) at either 4° C. […] The BLG, 320 μg, or milk, 500 μg protein, was then treated in 200 μl of simulated gastric fluid (SGF) as described by Astwood, J. D. et al. (1996), “Stability of food allergens to digestion in vitro”, Nature Biotechnol. 14:1269-1273. SGF consists of 0.32% pepsin (w/v) and 30 mM NaCl adjusted at pH 1.2 with HCl (Board of Trustees (ed.) 1995, Simulated Gastric Fluid, TS., pp. 2053 in the United States Pharmacopeia 23, The National Formulary 18. United States Pharmacopeial Convention, Inc. Rockville, Md.). The reaction mixture was incubated at 37° C. and stopped by adding 0.375-fold volume of 160 mM Na2CO3 (ca. pH 7) after 0, 0.25, 1, 2, 4, 8, 15, 30 and 60 min incubation. The protein mixture was then subjected to SDS-PAGE (15% gels) and stained for protein with Coomassie blue as described below. As indicated, the allergenicity of the digested samples was determined by skin test analysis.

The test system of data set [6] is atopic dogs. The data set is described as follows: Feeding challenges with BLG, upper GI index. Format: in vivo, dog. How it is done: Reduction of 80% pure BLG (a mixture of the A and B forms) was carried out for each dog in 100 ml of water. Each gram of BLG was treated by adding an aqueous mixture of 104 mg of NADPH, 1 mg of E. coli thioredoxin and 1 mg of E. coli NTR. The reactions occurred in a shaker at 125 rpm at 37° C. for 45 min. Samples were stored overnight at 4° C. The following day untreated (control) or treated BLG, 2.5 gm was mixed with a 12 oz. can of P/D food (Hills) and fed to a dog. Unchallenged animals received dog food alone without BLG while control animals received dog food with untreated BLG. Dogs were initially fed ¼ can of untreated food to initiate gastric flow. After 15 min, they were then fed at 3 intervals separated by 15 min ⅓ of a can of food that had been mixed with 2.5 g of either untreated or thioredoxin treated BLG. During these intervals dogs were monitored and their GI response assessed. Dogs were then observed and their response recorded at hourly intervals for the next 5 hr.
The digestion response of the food challenged dogs described above was assessed by assigning numbers to the timing, volume and fluidity of vomit induced by feeding. Fluidity: no vomit=0, solid vomit=1, liquid vomit=2, liquid with blood or bile vomit=3. Volume: no vomit=0, small vomit=1 and large vomit=2. Timing: delayed vomit=1, immediate vomit=2.

Data set [7] deals with thioredoxin (Escherichia coli, UniProt P0AA25).
In data set [8] the test system is trypsin. Put plainly: Trypsin proteolysis of purified milk allergen proteins. The settings on record: 2 μg trypsin. It counts as biochemical. The procedure: The analysis of the reduction was done using the mBBr/SDS-PAGE techniques. Further in this study, when 10 μg of an NTS reduced purified milk allergen protein, β-lactoglobulin (Sigma Chemical Co.), was treated with 2 μg of trypsin, proteolysis was 100% as compared with only 50% for the identically trypsin treated oxidized β-lactoglobulin. […] However, 10 μg of purified […] reduced by the NTS was proteolyzed 80% by trypsin. Also 10 μg of α-lactalbumin reduced by 0.8 μg of thioredoxin and 0.5 mM DTT was 100% proteolyzed by 2 μg of trypsin.

This is an account of results in patent US6677433B2 (The Regents of the University of California, priority 2001, dated 2004).

Read-outs that look alike come from different tables or passages of the source.

In the case of `N[C@@H](CCC(=O)N[C@@H](CS)C(=O)NCC(=O)O)C(=O)O` [Glutathione, reduced glutathione, reference compound], in data set [1], the “Gliadin, % Relative Reduction, Aggregate (proteins not entering the gel)” value is recorded as 60.1%; the “Gliadin, % Relative Reduction, α” value came out at 36.4%; the “Gliadin, % Relative Reduction, β” value was 68.1%; the “Gliadin, % Relative Reduction, γ” value was found to be 60.6%. Also, in data set [2], the “Glutenin, % Relative Reduction, 30-40 kDa” value came to 29%; the “Glutenin, % Relative Reduction, 40-60 kDa” value turned out to be 51%; the “Glutenin, % Relative Reduction, 60-110 kDa” value turned out to be 31%. Also, the “Relative Reduction (%)” value in data set [3] was 0%. In data set [4], the “effectiveness in reducing egg white proteins” value is recorded as “ineffective reductant”.
“Thioredoxin: E. coli thioredoxin reduced by NADPH and NTR”: in data set [1], the “Gliadin, % Relative Reduction, Aggregate (proteins not entering the gel)” value is 100.0%; the “Gliadin, % Relative Reduction, α” value is reported as 100.0%; the “Gliadin, % Relative Reduction, β” value came out at 100.0%; the “Gliadin, % Relative Reduction, γ” value was 100.0%. In data set [2] (Thioredoxin = 100), the “Glutenin, % Relative Reduction, 30-40 kDa” value amounted to 100%; the “Glutenin, % Relative Reduction, 40-60 kDa” value was 100%; the “Glutenin, % Relative Reduction, 60-110 kDa” value is given as 100%.
For “Treated: BLG reduced with NADPH, E. coli thioredoxin and NTR”, the time to digestion in data set [5] is ≤ 60 s. In addition, the “Upper GI Index” value was 0 in data set [6] (dog 6GCB1, Treated Exp. A, Control Exp. B); 0 in data set [6] (dog 6GCB3, BLG 2.5 g in dog food, Control Exp. A, Treated Exp. B); 6 in data set [6] (dog 6GCB4, Treated Exp. A, Control Exp. B); 0 in data set [6] (dog 6GCB6, Treated Exp. A, Control Exp. B); 3 in data set [6] (dog 6GCB7, Control Exp. A, Treated Exp. B). For the same molecule, in data set [6] (repeated feeding trials, on average), the “gastric reflux that disappeared” value is “about 70%”.
As to “erabutoxin b: short postsynaptic snake neurotoxin”, the “reduction of the toxin” value in data set [7] is reported as “significantly reduced”.

B1: Glutaredoxin: E. coli glutaredoxin with glutathione reductase, glutathione and NADPH (protein, UniProt P68688 1-85, looked up)
Glutaredoxin 1: MQTVIFGRSGCPYCVRAKDLAEKLSNERDDFQYQYVDIRAEGITKEDLQQKAGKPVETVPQIFVDQQHIGGYTDFAAWVKENLDA
modifications: with glutathione reductase, glutathione, NADPH
B1: in data set [1], the “Gliadin, % Relative Reduction, Aggregate (proteins not entering the gel)” value is given as 61.5%; the “Gliadin, % Relative Reduction, α” value is recorded as 43.5%; the “Gliadin, % Relative Reduction, β” value came out at 83.3%; the “Gliadin, % Relative Reduction, γ” value turned out to be 79.7%. For the same molecule, in data set [2] (Thioredoxin = 100), the “Glutenin, % Relative Reduction, 30-40 kDa” value was 40%; the “Glutenin, % Relative Reduction, 40-60 kDa” value was determined as 72%; the “Glutenin, % Relative Reduction, 60-110 kDa” value worked out at 50%.

B2: α-lactalbumin: purified milk allergen (protein, UniProt P00711 20-142, looked up)
Alpha-lactalbumin: EQLTKCEVFRELKDLKGYGGVSLPEWVCTTFHTSGYDTQAIVQNNDSTEYGLFQINNKIWCKDDQNPHSSNICNISCDKFLDDDLTDDIMCVKKILDKVGINYWLAHKALCSEKLDQWLCEKL
B2: the proteolysis by trypsin result in data set [8] (10 μg oxidized protein) is “no noticeable proteolysis”; in data set [8] (10 μg protein reduced by 0.8 μg thioredoxin and 0.5 mM DTT) it was 100%.
